From patent US9017672B2, “Hexon Tat-PTD modified adenovirus and uses thereof” (Immunicum Aktiebolag, priority 2012, dated 2015)

B1: HP-NAP: Helicobacter pylori Neutrophil Activating Protein, here secreted from virus-transduced cells (protein)
chain: MKTFEILKHLQADAIVLFMKVHNFHWNVKGTDFFNVHKATEEIYEEFADMFDDLAERIVQLGHHPLVTLSEAIKLTRVKEETKTSFHSKDIFKEILEDYKYLEKEFKELSNTAEKEGDKVTVTYADDQLAKLQKSIWMLQAHLA

Key:
[1] = tested on: cisplatin-insensitive SK-N-FI cells; assay: Relative cell viability by MTS assay, virus or drug; type: cell-based
Experimental: (§1) FIG. 25. Oncolytic adenovirus in combination with chemotherapy drugs. A cisplatin-insensitive clone of SK-N-FI and doxoru bicin-insensitive, etoposide-insensitive and vincristine-insensitive clones of SH-SY-5Y were established through repeated cycles of culture with increasing drug concentration. (A-D) Drug-sensitive (black lines) and drug-insensitive (grey dotted lines) neuroblastoma cells were then treated with viruses or drugs. The relative cell viability was analyzed after 4 days by MTS assay. (A) Oncolytic virus and cisplatin killing of SK-N-FI cells. (B) Oncolytic virus and etoposide killing of SH-SY-5Y cells. (C) Oncolytic virus and doxorubicin killing of SH-SY-5Y cells. (D) Oncolytic virus and vincristine killing of SH-SY-5Y cells. All data are shown as mean±SD from four independent experiments each with triplicate samples. (E) BON, NCI-H727 and QGP-1 cell lines were treated with PTD-based oncolytic adenovirus Ad5PTD(i/CgA-E1a-miR122T6) with different evg/cell in absence or presence of 10 μg/mL or 200 μg/mL cyclophosphamide. The relative cell viability was analyzed after 6 days by MTS assay.
(§2) A cisplatin-insensitive clone of the SK-N-FI neuroblastoma cell line and doxorubicin-, etoposide- and vincristine-insensitive clones of SH-SY-SY were established and treated with viruses at different evg/cell or drugs at various concentrations. The relative cell viability was analyzed by MTS assay. […] Ad5PTD(WT) also killed cisplatin-sensitive and insensitive SK-N-FI with the same efficacy (FIG. 25A).

[2] = tested on: cisplatin-sensitive SK-N-FI cells; assay: as above; type: cell-based; conditions: drug
Experimental: as §1, §2

[3] = tested on: TNF-α, MIP2-α, IL12/23 p40; assay: Serum cytokines by ELISA after intratumoral virus injections; type: in vivo; conditions: BON tumor-bearing mice, two intratumoral injections
Experimental: (§3) BON cells were transduced with viruses Ad5PTDf35(D24-sNAP) or Ad5PTDf35(D24) at MOI 10 FFU/cell. Supernatants were harvested 48 hours post-transduction. (a) Transwell migration assay of human neutrophils isolated from 4 different individuals (2×10^5 cells/well) against harvested supernatants for 2 hours at 37° C. All samples were analyzed in triplicates and the data is represented as mean±SD of number of cells migrated. Supernatant from untransduced BON cells were used as control, (***p<0.001; n=12). (b) Granulocyte activation assay with supernatants from virus-transduced BON cells for 30 minutes at 37° C. Activation was measured in terms of ROI production, which was monitored using fluorescent dye DHR123. Supernatant from untransduced BON cells were used as control. At least 10000 events were recorded in the flow cytometer and MFI of DHR123 was recorded, (**p<0.01; *p<0.05; n=5). (c) Mice bearing BON tumors were treated with two intratumoral injections of Ad5PTDf35(D24-sNAP) or Ad5PTDf35(Δ24) (Indicated dotted arrows) and 2 mice per group were sacrificed, blood and tumor samples were drawn at different time points (indicated by solid arrows). Serum was separated from blood by centrifugation at 300 g for 10 min. Concentration of various cytokines determined by ELISA are represented in (d) TNF-α, (e) MIP2-α and (f) IL12/23 p40. […] All samples were analyzed in duplicates. […]

neutrophils = assay: Granulocyte activation assay, ROI production (DHR123); type: cell-based; conditions: supernatants of transduced BON cells, 30 minutes
Experimental: as §3

human neutrophils = assay: Transwell migration assay of neutrophils against supernatants of virus-transduced BON cells; type: cell-based; conditions: supernatants 48 hours post-transduction, MOI 10 FFU/cell
Experimental: as §3

Molecule | IC50 ([1]; cisplatin-insensitive SK-N-FI, drug) [µM] | more drug needed to kill insensitive compared to sensitive cells ([1]; cisplatin-insensitive vs cisplatin-sensitive SK-N-FI) [fold] | IC50 [2] [µM] | induction of serum cytokines [3] | neutrophil activation, release of reactive oxygen species (neutrophils) | neutrophil migration (human neutrophils)
N.N.[Cl][Pt][Cl] [cisplatin] | 100 | 12 | 8 | – | – | –
B1 | – | – | – | induced proinflammatory cytokines (TNF-α and MIP2-α) and Th1 type cytokines (IL12/23 p40) | activated them to release reactive oxygen species | efficiently induce neutrophil migration
